Measured values taken from patent US20240307382A1, “MODULATORS OF THE INTEGRATED STRESS PATHWAY” (Calico Life Sciences LLC, priority 2017, published 2024).

Tested on: HEK293T cells carrying the ATF4 luciferase reporter
Test: ATF4-Luc assay (ATF4 luciferase reporter, tunicamycin-treated cells)
Format: cell-based
Conditions: Homo sapiens, HEK-293T, 1 μg/mL tunicamycin, 7 hours
Procedure: In order to test exemplary compounds of the invention in a cellular context, a stable VWMD cell line was first constructed. The ATF4 reporter was prepared by fusing the human full-length ATF4 5′-UTR (NCBI Accession No. BC022088.2) in front of the firefly luciferase (FLuc) coding sequence lacking the initiator methionine as described in Sidrauski et al (eLife 2013). The construct was used to produce recombinant retroviruses using standard methods and the resulting viral supermatant was used to transduce ITEK293T cells, which were then subsequently selected with puromycin to generate a stable cell line.
HTEK293T cells carrying the ATF4 luciferase reporter were plated on polylysine coated 384-well plates (Greiner Bio-one) at 30,000 cells per well. Cells were treated the next day with 1 μg/mL tunicamycin and 200 nM of a compound of Formula (I) for 7 hours. Luminescence was measured using One Glo (Promega) as specified by the manufacturer. Cells were maintained in DMEM with L-glutamine supplemented with 10% heat-inactivated FBS (Gibco) and Antibiotic-Antimycotic solution (Gibco).
Table 2 below summarizes the EC50 data obtained using the ATF4-Luc assay for exemplary compounds of the invention.

Q: `O=C(COc1ccc(Cl)c(F)c1)NC12CCC(NC(=O)c3coc(C(F)(F)F)n3)(CC1)C[C@@H]2O` [Compound 1004, N-{(3S)-4-[2-(4-chloro-3-fluorophenoxy)acetamido]-3-hydroxybicyclo[2.2.2]octan-1-yl}-2-(trifluoromethyl)-1,3-oxazole-4-carboxamide] was tested. Which EC50 did it give?
A: < 50 nM

Q: With `O=C(COc1ccc(Cl)c(Cl)c1)NC12CCC(NC(=O)c3cnc4cc(F)ccc4n3)(CC1)C[C@@H]2O` [Compound 1005, N-{(3S)-4-[2-(3,4-dichlorophenoxy)acetamido]-3-hydroxybicyclo[2.2.2]octan-1-yl}-6-fluoroquinoxaline-2-carboxamide] as the compound, how does the EC50 read?
A: < 50 nM

Q: With `O=C(COc1ccc(Cl)c(F)c1)NC12CCC(NC(=O)c3cnc4cc(F)ccc4n3)(CC1)C[C@@H]2O` [Compound 1006, N-{(3S)-4-[2-(4-chloro-3-fluorophenoxy)acetamido]-3-hydroxybicyclo[2.2.2]octan-1-yl}-6-fluoroquinoxaline-2-carboxamide] as the compound, how does the EC50 read?
A: < 50 nM

Q: For `Cn1nc(C(=O)NC23CCC(NC(=O)COc4ccc(Cl)c(Cl)c4)(CC2)[C@@H](O)C3)cc1C(F)(F)F` [Compound 1007, N-{(3S)-4-[2-(3,4-dichlorophenoxy)acetamido]-3-hydroxybicyclo[2.2.2]octan-1-yl}-1-methyl-5-(trifluoromethyl)-1H-pyrazole-3-carboxamide], which EC50 is on record?
A: < 50 nM

Q: For `O=C(COc1ccc(Cl)c(Cl)c1)NC12CCC(NC(=O)c3cnc4ccccc4n3)(CC1)C[C@@H]2O` [Compound 1008, N-{(3S)-4-[2-(3,4-dichlorophenoxy)acetamido]-3-hydroxybicyclo[2.2.2]octan-1-yl}quinoxaline-2-carboxamide], which EC50 is on record?
A: < 50 nM

Q: Which EC50 does the source give for `O=C(COc1ccc(Cl)c(Cl)c1)NC12CCC(NC(=O)c3coc(C(F)(F)F)n3)(CC1)C[C@@H]2O` [Compound 1009, N-{(3S)-4-[2-(3,4-dichlorophenoxy)acetamido]-3-hydroxybicyclo[2.2.2]octan-1-yl}-2-(trifluoromethyl)-1,3-oxazole-4-carboxamide] here?
A: < 50 nM

Q: Which EC50 does the source give for `Cn1nc(C(F)F)cc1C(=O)NC12CCC(NC(=O)COc3ccc(Cl)c(Cl)c3)(CC1)[C@@H](O)C2` [Compound 1010, N-{(3S)-4-[2-(3,4-dichlorophenoxy)acetamido]-3-hydroxybicyclo[2.2.2]octan-1-yl}-3-(difluoromethyl)-1-methyl-1H-pyrazole-5-carboxamide] here?
A: < 50 nM

Q: `O=C(COc1ccc(Cl)c(Cl)c1)NC12CCC(NC(=O)c3cnc(C(F)(F)F)cn3)(CC1)C[C@@H]2O` [Compound 1011, N-{(3S)-4-[2-(3,4-dichlorophenoxy)acetamido]-3-hydroxybicyclo[2.2.2]octan-1-yl}-5-(trifluoromethyl)pyrazine-2-carboxamide] was tested. Which EC50 did it give?
A: 50 to 250 nM

Q: How did the EC50 turn out when `CC(C)c1cc(C(=O)NC23CCC(NC(=O)COc4ccc(Cl)c(Cl)c4)(CC2)[C@@H](O)C3)on1` [Compound 1012, N-{(3S)-4-[2-(3,4-dichlorophenoxy)acetamido]-3-hydroxybicyclo[2.2.2]octan-1-yl}-3-(propan-2-yl)-1,2-oxazole-5-carboxamide] was run?
A: < 50 nM

Q: With `O=C(COc1ccc(Cl)c(Cl)c1)NC12CCC(NC(=O)c3cc(C4CC4)no3)(CC1)C[C@@H]2O` [Compound 1013, 3-cyclopropyl-N-{(3S)-4-[2-(3,4-dichlorophenoxy)acetamido]-3-hydroxybicyclo[2.2.2]octan-1-yl}-1,2-oxazole-5-carboxamide] as the compound, how does the EC50 read?
A: < 50 nM

Q: Which EC50 does the source give for `O=C(COc1ccc(Cl)c(Cl)c1)NC12CCC(NC(=O)c3ccc(N4CCCC4)cn3)(CC1)C[C@@H]2O` [Compound 1014, N-{(3S)-4-[2-(3,4-dichlorophenoxy)acetamido]-3-hydroxybicyclo[2.2.2]octan-1-yl}-5-(pyrrolidin-1-yl)pyridine-2-carboxamide] here?
A: > 2000 nM

Q: For `Cc1cc(C(=O)NC23CCC(NC(=O)COc4ccc(F)c(Cl)c4)(CC2)[C@@H](O)C3)on1` [Compound 1015, N-{(3S)-4-[2-(3-chloro-4-fluorophenoxy)acetamido]-3-hydroxybicyclo[2.2.2]octan-1-yl}-3-methyl-1,2-oxazole-5-carboxamide], which EC50 is on record?
A: 50 to 250 nM

Q: `Cc1cc(C(=O)NC23CCC(NC(=O)COc4ccc(Cl)cc4)(CC2)[C@@H](O)C3)on1` [Compound 1016, N-{(3S)-4-[2-(4-chlorophenoxy)acetamido]-3-hydroxybicyclo[2.2.2]octan-1-yl}-3-methyl-1,2-oxazole-5-carboxamide] was tested. Which EC50 did it give?
A: 50 to 250 nM

Q: With `O=C(COc1ccc(Cl)c(Cl)c1)NC12CCC(NC(=O)c3cc(C(F)(F)F)no3)(CC1)C[C@@H]2O` [Compound 1017, N-{(3S)-4-[2-(3,4-dichlorophenoxy)acetamido]-3-hydroxybicyclo[2.2.2]octan-1-yl}-3-(trifluoromethyl)-1,2-oxazole-5-carboxamide] as the compound, how does the EC50 read?
A: < 50 nM

Q: Which EC50 does the source give for `O=C(COc1ccc(Cl)c(F)c1)NC12CCC(NC(=O)c3cc(-c4ccccc4)no3)(CC1)C[C@@H]2O` [Compound 1018, N-{(3S)-4-[2-(4-chloro-3-fluorophenoxy)acetamido]-3-hydroxybicyclo[2.2.2]octan-1-yl}-3-phenyl-1,2-oxazole-5-carboxamide] here?
A: < 50 nM

Q: `CCc1c(C(=O)NC23CCC(NC(=O)COc4ccc(Cl)c(F)c4)(CC2)[C@@H](O)C3)nn(C)c1-c1ccccc1` [Compound 1019, N-{(3S)-4-[2-(4-chloro-3-fluorophenoxy)acetamido]-3-hydroxybicyclo[2.2.2]octan-1-yl}-4-ethyl-1-methyl-5-phenyl-1H-pyrazole-3-carboxamide] was tested. Which EC50 did it give?
A: 1000 to 2000 nM

Q: With `Cn1nc(-c2ccccc2)cc1C(=O)NC12CCC(NC(=O)COc3ccc(Cl)c(F)c3)(CC1)[C@@H](O)C2` [Compound 1020, N-{(3S)-4-[2-(4-chloro-3-fluorophenoxy)acetamido]-3-hydroxybicyclo[2.2.2]octan-1-yl}-1-methyl-3-phenyl-1H-pyrazole-5-carboxamide] as the compound, how does the EC50 read?
A: < 50 nM

Q: `Cc1oc(-c2ccccc2)cc1C(=O)NC12CCC(NC(=O)COc3ccc(Cl)c(F)c3)(CC1)[C@@H](O)C2` [Compound 1021, N-{(3S)-4-[2-(4-chloro-3-fluorophenoxy)acetamido]-3-hydroxybicyclo[2.2.2]octan-1-yl}-2-methyl-5-phenylfuran-3-carboxamide] was tested. Which EC50 did it give?
A: < 50 nM

Q: With `O=C(COc1ccc(Cl)c(F)c1)NC12CCC(NC(=O)c3cc(-c4ccccc4)[nH]n3)(CC1)C[C@@H]2O` [Compound 1022, N-{(3S)-4-[2-(4-chloro-3-fluorophenoxy)acetamido]-3-hydroxybicyclo[2.2.2]octan-1-yl}-5-phenyl-1H-pyrazole-3-carboxamide] as the compound, how does the EC50 read?
A: < 50 nM

Q: `Cn1ncc2cc(C(=O)NC34CC(NC(=O)COc5ccc(Cl)c(F)c5)(C3)C4)ccc21` [Compound 1023, N-{3-[2-(4-chloro-3-fluorophenoxy)acetamido]bicyclo[1.1.1]pentan-1-yl}-1-methyl-1H-indazole-5-carboxamide] was tested. Which EC50 did it give?
A: 250 to 1000 nM

Q: For `O=C(COc1ccc(Cl)c(Cl)c1)NC12CCC(NC(=O)c3ccc(OC(F)(F)F)cn3)(CC1)C[C@@H]2O` [Compound 1024, N-{(3S)-4-[2-(3,4-dichlorophenoxy)acetamido]-3-hydroxybicyclo[2.2.2]octan-1-yl}-5-(trifluoromethoxy)pyridine-2-carboxamide], which EC50 is on record?
A: < 50 nM

Q: For `O=C(COc1ccc(Cl)c(Cl)c1)NC12CCC(NC(=O)c3cccc(O)n3)(CC1)C[C@@H]2O` [Compound 1025, N-{(3S)-4-[2-(3,4-dichlorophenoxy)acetamido]-3-hydroxybicyclo[2.2.2]octan-1-yl}-6-hydroxypyridine-2-carboxamide], which EC50 is on record?
A: < 50 nM

Q: How did the EC50 turn out when `O=C(COc1ccc(Cl)c(Cl)c1)NC12CCC(NC(=O)c3ccccn3)(CC1)C[C@@H]2O` [Compound 1026, N-{(3S)-4-[2-(3,4-dichlorophenoxy)acetamido]-3-hydroxybicyclo[2.2.2]octan-1-yl}pyridine-2-carboxamide] was run?
A: < 50 nM

Q: `O=C(COc1ccc(Cl)c(Cl)c1)NC12CCC(NC(=O)c3cccc(C(F)(F)F)n3)(CC1)C[C@@H]2O` [Compound 1027, N-{(3S)-4-[2-(3,4-dichlorophenoxy)acetamido]-3-hydroxybicyclo[2.2.2]octan-1-yl}-6-(trifluoromethyl)pyridine-2-carboxamide] was tested. Which EC50 did it give?
A: < 50 nM

Q: `CC(C)Oc1ccc(C(=O)NC23CCC(NC(=O)COc4ccc(Cl)c(Cl)c4)(CC2)[C@@H](O)C3)nc1` [Compound 1028, N-{(3S)-4-[2-(3,4-dichlorophenoxy)acetamido]-3-hydroxybicyclo[2.2.2]octan-1-yl}-5-[(propan-2-yl)oxy]pyridine-2-carboxamide] was tested. Which EC50 did it give?
A: 50 to 250 nM

Q: For `Cc1ccc(C(=O)NC23CCC(NC(=O)COc4ccc(Cl)c(Cl)c4)(CC2)[C@@H](O)C3)nc1` [Compound 1029, N-{(3S)-4-[2-(3,4-dichlorophenoxy)acetamido]-3-hydroxybicyclo[2.2.2]octan-1-yl}-5-methylpyridine-2-carboxamide], which EC50 is on record?
A: < 50 nM

Q: How did the EC50 turn out when `O=C(COc1ccc(Cl)c(Cl)c1)NC12CCC(NC(=O)c3cc(C(F)(F)F)ccn3)(CC1)C[C@@H]2O` [Compound 1030, N-{(3S)-4-[2-(3,4-dichlorophenoxy)acetamido]-3-hydroxybicyclo[2.2.2]octan-1-yl}-4-(trifluoromethyl)pyridine-2-carboxamide] was run?
A: 50 to 250 nM

Q: Which EC50 does the source give for `O=C(COc1ccc(Cl)c(Cl)c1)NC12CCC(NC(=O)c3ccc(C(F)(F)F)cn3)(CC1)C[C@@H]2O` [Compound 1031, N-{(3S)-4-[2-(3,4-dichlorophenoxy)acetamido]-3-hydroxybicyclo[2.2.2]octan-1-yl}-5-(trifluoromethyl)pyridine-2-carboxamide] here?
A: < 50 nM
